Measured values taken from BindingDB's records for patent US12017994 (Symberix, 2024).

Target: Beta-glucuronidase (Escherichia coli (strain K12), UniProt P05804)
Test: Biological Assay
Description: Successful drug candidate compounds were subjected to numerous biochemical and cellular assays. Purified bacterial β-glucuronidases were challenged with compounds to determine inhibition properties in a standard, robust activity assay, utilizing p-nitrophenyl glucuronide (PNPG) as the enzymatic substrate. Reactions (n=3/inhibitor concentration) were conducted in a 96-well assay, consisting of PNPG substrate (12 concentrations between 25 μM and 5 mM), inhibitor solution (8 concentrations between 0.1 nM and 100 μM), and 5 nM enzyme. […] Purified bovine liver and human β-glucuronidase were dissolved in a reaction mixture containing 1 μM enzyme and 1 mM PNPG as substrate.

Beta-glucuronidase, sequence (P05804 whole entry): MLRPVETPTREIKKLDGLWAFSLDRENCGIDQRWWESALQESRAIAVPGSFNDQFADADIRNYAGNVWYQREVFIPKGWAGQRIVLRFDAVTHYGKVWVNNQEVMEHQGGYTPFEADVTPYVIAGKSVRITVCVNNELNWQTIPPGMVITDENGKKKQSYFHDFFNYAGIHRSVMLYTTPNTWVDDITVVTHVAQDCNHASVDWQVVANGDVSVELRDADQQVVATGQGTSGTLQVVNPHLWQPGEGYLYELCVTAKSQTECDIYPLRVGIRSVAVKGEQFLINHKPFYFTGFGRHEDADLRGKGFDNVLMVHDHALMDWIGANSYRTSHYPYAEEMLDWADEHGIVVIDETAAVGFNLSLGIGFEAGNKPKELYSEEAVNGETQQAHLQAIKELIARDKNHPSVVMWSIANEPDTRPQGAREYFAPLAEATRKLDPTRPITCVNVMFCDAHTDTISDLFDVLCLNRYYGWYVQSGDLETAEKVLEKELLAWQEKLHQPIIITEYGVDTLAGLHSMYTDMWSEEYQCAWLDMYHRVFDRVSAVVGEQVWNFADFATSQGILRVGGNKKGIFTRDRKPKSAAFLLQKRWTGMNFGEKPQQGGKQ

Row | SMILES | IC50
1 | COc1cccc(NC(=O)N(CCO)Cc2cc3cc(C)cc(C)c3[nH]c2=O)c1 [US12017994, Ref #36'] | 3.71 µM
2 | Cc1cc(C)c2[nH]c(=O)c(CN(CCO)C(=O)Nc3ccc(F)cc3C#C[Si](C)(C)C)cc2c1 [US12017994, Ref #44'] | 19.1 µM
